What is called EC50 is the concentration that produces a half-maximal response.

For the assay, the target named is voltage-gated K+ channel KCNQ2 (Homo sapiens, UniProt O43526). The assay can be described thus: thallium flux assay to detect openers of KCNQ potassium channels. The assay is classed as cell-based. To be noted: thallium influx assay; 10 point concentration series, 1:3 dilutions; concentration yielding 50% of maximal response (opening). The source says: A thallium flux assay was used to detect and characterize openers of KCNQ potassium channels. The thallium assay is generally described in International application WO 02/31508 published Apr. 18, 2002. More specifically, the thallium influx assay to detect compounds that block or open the voltage-gated K^+ channel KCNQ2 is described in Example IV of the published WO 02/31508 application.
Sequence of voltage-gated K+ channel KCNQ2 (O43526 whole entry): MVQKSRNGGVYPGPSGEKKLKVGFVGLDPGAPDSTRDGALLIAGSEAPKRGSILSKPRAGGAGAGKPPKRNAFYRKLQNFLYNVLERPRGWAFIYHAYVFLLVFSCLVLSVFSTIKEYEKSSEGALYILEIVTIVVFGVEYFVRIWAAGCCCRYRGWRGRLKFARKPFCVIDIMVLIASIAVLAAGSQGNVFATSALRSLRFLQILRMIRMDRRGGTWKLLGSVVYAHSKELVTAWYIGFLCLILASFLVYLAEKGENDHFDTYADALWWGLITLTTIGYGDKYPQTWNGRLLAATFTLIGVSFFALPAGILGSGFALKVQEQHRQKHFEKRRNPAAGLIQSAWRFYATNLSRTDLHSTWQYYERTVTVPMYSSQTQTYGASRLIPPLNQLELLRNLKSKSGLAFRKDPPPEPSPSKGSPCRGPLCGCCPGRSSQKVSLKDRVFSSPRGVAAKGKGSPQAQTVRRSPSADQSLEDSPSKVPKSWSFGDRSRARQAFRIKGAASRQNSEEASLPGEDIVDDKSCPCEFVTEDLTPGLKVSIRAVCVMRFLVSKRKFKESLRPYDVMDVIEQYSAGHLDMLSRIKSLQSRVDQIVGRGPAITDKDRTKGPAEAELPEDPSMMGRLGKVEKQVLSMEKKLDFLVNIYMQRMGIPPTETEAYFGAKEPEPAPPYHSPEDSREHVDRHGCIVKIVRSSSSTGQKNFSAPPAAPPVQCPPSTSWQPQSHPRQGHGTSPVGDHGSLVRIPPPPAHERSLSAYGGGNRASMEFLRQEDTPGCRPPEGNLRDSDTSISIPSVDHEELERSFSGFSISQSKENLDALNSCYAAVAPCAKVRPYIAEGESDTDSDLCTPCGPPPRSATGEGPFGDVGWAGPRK
For data analysis, the amplitude of the average of the negative controls was subtracted from all wells. The amplitudes of the test compounds were then compared to the value of four standard deviations of the negative control wells. The lowest concentration of a test compound sufficient to generate a signal amplitude greater than or equal to four standard deviations from the amplitude of the negative controls was defined as the minimal active concentration.
For generating EC50 values, compounds were serially diluted in 1:3 volume increments to produce a 10 point concentration series. EC50 values were calculated by fitting the resulting amplitudes to a single-site logistic equation. EC50 was defined as the concentration of test compound required to yield 50% of the maximal response. Maximal response (Maximal opening) was the largest signal amplitude above the negative control generated by any concentration of a test compound.

Regarding `C[C@H](NC(=O)/C=C/c1ccccc1F)c1cccc(N2CCN(c3ccccn3)CC2)c1` [Example 3, (S)-3-(2-Fluoro-phenyl)-N-{1-[3-(4-pyridin-2-yl-piperazin-1-yl)-phenyl]-ethyl}-acrylamide], the EC50 was determined as 476 nM. For `C[C@H](NC(=O)/C=C/c1cccc(F)c1F)c1cccc(N2CCN(c3ccccn3)CC2)c1` [Example 10, (S)-3-(2,3-Difluoro-phenyl)-N-{1-[3-(4-pyridin-2-yl-piperazin-1-yl)-phenyl]-ethyl}-acrylamide], the EC50 amounted to 1 nM. `C[C@H](NC(=O)/C=C/c1ccc(F)cc1F)c1cccc(N2CCN(c3ccccn3)CC2)c1` [Example 11, (S)-3-(2,4-Difluoro-phenyl)-N-{1-[3-(4-pyridin-2-yl-piperazin-1-yl)-phenyl]-ethyl}-acrylamide] gave an EC50 of 1 nM. On to `C[C@H](NC(=O)/C=C/c1cc(F)ccc1F)c1cccc(N2CCN(c3ccccn3)CC2)c1` [Example 12, (S)-3-(2,5-Difluoro-phenyl)-N-{1-[3-(4-pyridin-2-yl-piperazin-1-yl)-phenyl]-ethyl}-acrylamide], for which the EC50 was found to be 4 nM. With `C[C@H](NC(=O)/C=C/c1c(F)cccc1F)c1cccc(N2CCN(c3ccccn3)CC2)c1` [Example 13, (S)-3-(2,6-Difluoro-phenyl)-N-{1-[3-(4-pyridin-2-yl-piperazin-1-yl)-phenyl]-ethyl}-acrylamide], a half-maximal effect (EC50) was put at 280 nM.

Take `C[C@H](NC(=O)/C=C/c1ccc(Cl)cc1F)c1cccc(N2CCN(c3ccccn3)CC2)c1` [Example 17, (S)-3-(4-Chloro-2-fluoro-phenyl)-N-{1-[3-(4-pyridin-2-yl-piperazin-1-yl)-phenyl]-ethyl}-acrylamide]: a half-maximal effect (EC50) was put at 1 nM.
